This passage reports IC50 results from patent publication US7528140B2, “Substituted pyrrolo[3,2-d]pyrimidines as glycogen synthase kinase (GSK) inhibitors” (Teijin Limited, priority 2002, dated 2009).

Some results are limits rather than exact numbers.

The target of this experiment is recombinant human GSK-3β (Homo sapiens, UniProt P49841). Kind of experiment: Measurement of GSK-3 enzyme activity inhibition (32P phosphorylation of phospho-glycogen synthase peptide-2). Format: biochemical. The following applies: 20 μM ATP, 20 minutes at room temperature, read-out: GSK-3 enzyme inhibiting activity (IC50). The protocol: Measurement of GSK-3 Enzyme Activity Inhibition
Chain of recombinant human GSK-3β (P49841 whole entry): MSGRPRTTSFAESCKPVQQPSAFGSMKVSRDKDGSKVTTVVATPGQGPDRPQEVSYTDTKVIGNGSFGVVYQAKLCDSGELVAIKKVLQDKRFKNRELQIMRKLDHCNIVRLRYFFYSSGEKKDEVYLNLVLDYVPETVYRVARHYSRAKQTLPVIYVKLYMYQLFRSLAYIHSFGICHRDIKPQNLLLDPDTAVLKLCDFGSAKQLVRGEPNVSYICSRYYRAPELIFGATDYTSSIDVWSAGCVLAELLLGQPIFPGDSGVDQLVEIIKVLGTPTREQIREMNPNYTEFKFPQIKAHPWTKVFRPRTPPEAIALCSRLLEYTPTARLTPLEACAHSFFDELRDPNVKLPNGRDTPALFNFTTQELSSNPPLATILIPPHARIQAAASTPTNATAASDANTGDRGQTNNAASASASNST
After adding 25 μL of phospho-glycogen synthase peptide-2 substrate solution [6 μM phospho -glycogen synthase peptide-2, 20 μM ATP, 16 mM MOPS buffer (pH 7.0), 0.2 mM EDTA, 20 mM magnesium acetate, 0.1 μCi [γ-^32P]ATP (specific activity: approximately 110 TBq/mmol)]to 5 μL of the test compound using 5% dimethylsulfoxide as the solvent, reaction was initiated by further addition of 20 μL of a GSK-3β enzyme solution [10 mU recombinant human GSK-3β, 20 mM MOPS buffer (pH 7.0), 1 mM EDTA, 0.1% polyoxyethylene lauryl ether (23 Lauryl Ether; Brij 35), 5% glycerol, 0.1% β-mercaptoethanol]. After conducting the reaction for 20 minutes at room temperature, an equivalent volume of a 200 mM phosphoric acid solution was added to quench the reaction, and 90 μL of the reaction product was adsorbed onto a MultiScreen PH plate (Millipore) and rinsed with a 100 mM phosphoric acid solution. After drying the plate, 30 μL of Micro Scint-O (Packard BioScience) was added, and the cpm was measured with a scintillation counter to determine the inhibiting activity. Phospho GS Peptide2 is […]P)-Glu-Asp-Glu-Glu-Glu (SEQ ID NO:1).
For orientation: IC50 means the midpoint of a concentration-inhibition curve. For `N#Cc1c(-c2c(F)cccc2F)n(CCN)c2c(=S)[nH]cnc12` [1-0460, 5-(2-aminoethyl)-6-(2,6-difluorophenyl)-4-thioxo-3-hydropyrrolo[3,2-d]pyrimidine-7-carbonitrile], the IC50 was 1000 to 10000 nM.
For the molecule `N#Cc1c(-c2ccccc2)n(CCOc2ccccc2)c2c(=S)[nH]cnc12` [1-0372], the 50% inhibitory concentration (IC50) fell in the range of 1000 to 10000 nM.
Next, `N#Cc1c(C2CC2)n(CCC(=O)O)c2c(=S)[nH]cnc12` [4-0092, 3-(7-cyano-6-cyclopropyl-4-thioxo-3-hydropyrrolo[3,2-d]pyrimidin-5-yl)propanoic acid]: 10 to 30 nM.
Turning to `Cc1c(C#N)c2nc[nH]c(=S)c2n1CCCc1ccccc1` [1-0323], the half-inhibitory concentration (IC50) was 1000 to 10000 nM.
For `CC(C)OCCCn1c(-c2cc(O)cc(O)c2)c(C#N)c2nc[nH]c(=S)c21` [1-0529, 6-(3,5-dihydroxyphenyl)-5-[3-(methylethoxy)propyl]-4-thioxo-3-hydropyrrolo[3,2-d]pyrimidine-7-carbonitrile] the value was 10 to 30 nM.
Turning to `CC(C)(C)OC(=O)NCCCn1c(-c2ccccc2)c(C#N)c2nc[nH]c(=O)c21` [2-0208], the IC50 lay within 1000 to 10000 nM.
As for `CCOC(=O)CCCn1c(-c2ccccc2)c(C#N)c2nc[nH]c(=O)c21` [4-0030], the concentration for half-maximal inhibition (IC50) lay in the range of 1000 to 10000 nM.
On to `N#Cc1c(-c2ccccc2)n(CCn2c(=O)[nH]c3ccccc3c2=O)c2c(=S)[nH]cnc12` [2-1849, 5-[2-(2,4-dioxo(1,3-dihydroquinazolin-3-yl))ethyl]-6-phenyl-4-thioxo-3-hydropyrrolo[3,2-d]pyrimidine-7-carbonitrile], for which the IC50 was 1000 to 10000 nM.
On to `N#Cc1c(-c2ccccc2N)[nH]c2c(=S)[nH]cnc12` [1-0753, 6-(2-aminophenyl)-4-thioxo-3-hydropyrrolo[3,2-d]pyrimidine-7-carbonitrile], for which the IC50 lay within 1000 to 10000 nM.
On to `N#Cc1c(-c2ccccc2)n(CCc2nc(-c3ccccc3)no2)c2c(=S)[nH]cnc12` [1-0495, 6-phenyl-5-[2-(3-phenyl(1,2,4-oxadiazol-5-yl))ethyl]-4-thioxo-3-hydropyrrolo[3,2-d]pyrimidine-7-carbonitrile], for which the IC50 is 1000 to 10000 nM.
For the molecule `CC(=O)OCCCn1c(-c2ccccc2)c(C#N)c2nc[nH]c(=O)c21` [2-0519], the IC50 was 1000 to 10000 nM.
Take `N#Cc1c(-c2ccccc2)[nH]c2c(=O)[nH]cnc12` [1-0007]: the IC50 lay in the range of 1000 to 10000 nM.
Next, `N#Cc1c(-c2ccccc2)n(CCC(=O)N2CCCCC2)c2c(=S)[nH]cnc12` [3-0152]: under 10 nM.
On to `N#Cc1c(-c2ccccc2)n(CCC(=O)N2CCCC2)c2c(=S)[nH]cnc12` [3-0148], for which the IC50 lay within 30 to 100 nM.
On to `COCCCn1c(-c2ccccc2)c(C#N)c2nc[nH]c(=O)c21` [1-0227], for which the IC50 was 1000 to 10000 nM.
For `COCCn1c(-c2ccccc2)c(C#N)c2nc[nH]c(=S)c21` [1-0208] the value was 1000 to 10000 nM.
On to `N#Cc1c(N2CCCC2)n(CCNC(=O)c2ccc(F)cc2)c2c(=S)[nH]cnc12` [6-1031, N-[2-(7-cyano-6-pyrrolidinyl-4-thioxo(3-hydropyrrolo[3,2-d]pyrimidin-5-yl))ethyl](4-fluorophenyl)carboxamide], for which the IC50 lay in the range of 30 to 100 nM.
On to `N#Cc1c(-c2ccccc2)n(CCC(=O)N2CCOCC2)c2c(=S)[nH]cnc12` [3-0294], for which the IC50 lay in the range of 30 to 100 nM.
Next, `N#Cc1cn(Cc2ccccc2)c2c(=S)[nH]cnc12` [1-0301]: 1000 to 10000 nM; `Cc1ccoc1-c1c(C#N)c2nc[nH]c(=S)c2n1CCNC(=O)C(F)(F)F` [2-0601, N-{2-[7-cyano-6-(3-methyl(2-furyl))-4-thioxo(3-hydropyrrolo[3,2-d]pyrimidin-5-yl)]ethyl}-2,2,2-trifluoroacetamide]: 10 to 30 nM.
Turning to `CCOC(=O)CCn1c(-c2ccccc2)c(C#N)c2nc[nH]c(=S)c21` [4-0005, ethyl 3-(7-cyano-6-phenyl-4-thioxo-3-hydropyrrolo[3,2-d]pyrimidin-5-yl)propanoate], the IC50 lay within 1000 to 10000 nM.
Consider `N#Cc1c(-c2ccccc2)n(CCN2C(=O)c3ccccc3C2=O)c2c(=S)[nH]cnc12` [1-0501, 5-[2-(1,3-dioxoisoindolin-2-yl)ethyl]-6-phenyl-4-thioxo-3-hydropyrrolo[3,2-d]pyrimidine-7-carbonitrile], for which the IC50 was 1000 to 10000 nM.
As for `N#Cc1c(-c2ccccc2)n(CCCO)c2c(=O)[nH]cnc12` [1-0194], the IC50 fell in the range of 1000 to 10000 nM.
Regarding `CSCCCn1c(-c2ccccc2)c(C#N)c2nc[nH]c(=O)c21` [1-0263], the concentration for half-maximal inhibition (IC50) is 1000 to 10000 nM.
`N#Cc1c(-c2cccc(O)c2)[nH]c2c(=S)[nH]cnc12` [1-0698, 6-(3-hydroxyphenyl)-4-thioxo-3-hydropyrrolo[3,2-d]pyrimidine-7-carbonitrile]: the IC50 is 10 to 30 nM.
Consider `N#Cc1c(-c2ccccc2)n(CCNC(=O)Nc2cccc(C(=O)O)c2)c2c(=S)[nH]cnc12` [2-1777, 3-({N-[2-(7-cyano-6-phenyl-4-thioxo-3-hydropyrrolo[3,2-d]pyrimidin-5-yl)ethyl]carbamoyl}amino)benzoic acid], for which the IC50 is 30 to 100 nM.
On to `N#Cc1c(-c2ccccc2Br)[nH]c2c(=S)[nH]cnc12` [1-0751, 6-(2-bromophenyl)-4-thioxo-3-hydropyrrolo[3,2-d]pyrimidine-7-carbonitrile], for which the IC50 was 30 to 100 nM.
With `CC(C)(C)Cn1c(-c2ccccc2)c(C#N)c2nc[nH]c(=S)c21` [1-0129], the IC50 was 1000 to 10000 nM.
Next, `CC(C)CCn1c(-c2ccccc2)c(C#N)c2nc[nH]c(=O)c21` [1-0113]: 1000 to 10000 nM; `Cc1ccoc1-c1c(C#N)c2nc[nH]c(=O)c2n1CCNC(=O)C(F)(F)F` [2-1664, N-{2-[7-cyano-6-(3-methyl(2-furyl))-4-oxo(3-hydropyrrolo[3,2-d]pyrimidin-5-yl)]ethyl}-2,2,2-trifluoroacetamide]: 1000 to 10000 nM; `CCOCCn1c(-c2ccccc2)c(C#N)c2nc[nH]c(=S)c21` [1-0215]: 1000 to 10000 nM.
Take `N#Cc1c(-c2ccccc2)n(CCNCc2ccccc2)c2c(=S)[nH]cnc12` [2-1775, 6-phenyl-5-{2-[benzylamino]ethyl}-4-thioxo-3-hydropyrrolo[3,2-d]pyrimidine-7-carbonitrile]: the IC50 was 1000 to 10000 nM.
Next, `N#Cc1c(C2CC2)n(Cc2ccccc2)c2c(=O)[nH]cnc12` [1-0303]: 1000 to 10000 nM.
For `CN(C)c1c(C#N)c2nc[nH]c(=S)c2n1CCNC(=O)c1ccc(F)cc1` [6-1029, N-{2-[6-(dimethylamino)-7-cyano-4-thioxo(3-hydropyrrolo[3,2-d]pyrimidin-5-yl)]ethyl}(4-fluorophenyl)carboxamide] the value was 30 to 100 nM; for `N#Cc1c(-c2ccccc2)n(CCNC(=O)c2ccccc2)c2c(=S)[nH]cnc12` [2-0558], 30 to 100 nM; for `Cc1ccc(N)c(C(=O)NCCn2c(-c3ccccc3)c(C#N)c3nc[nH]c(=S)c32)c1` [2-0635, (2-amino-5-methylphenyl)-N-[2-(7-cyano-6-phenyl-4-thioxo(3-hydropyrrolo[3,2-d]pyrimidin-5-yl))ethyl]carboxamide], 30 to 100 nM.
For `N#Cc1c(NC2CC2)n(CCNC(=O)c2ccccc2)c2c(=S)[nH]cnc12` [6-0413, N-{2-[7-cyano-6-(cyclopropylamino)-4-thioxo(3-hydropyrrolo[3,2-d]pyrimidin-5-yl)]ethyl}benzamide] the value was 10 to 30 nM; for `Cn1cccc1-c1c(C#N)c2nc[nH]c(=S)c2n1CCN` [1-0459, 5-(2-aminoethyl)-6-(1-methylpyrrol-2-yl)-4-thioxo-3-hydropyrrolo[3,2-d]pyrimidine-7-carbonitrile], 1000 to 10000 nM; for `CC(C)CCn1c(-c2ccccc2)c(C#N)c2nc[nH]c(=S)c21` [1-0114], 1000 to 10000 nM.
As to `N#Cc1c(-c2ccco2)n(CCC(=O)N2CCCCC2)c2c(=S)[nH]cnc12` [3-0156], the IC50 was under 10 nM.
For the molecule `Cn1cccc1-c1c(C#N)c2nc[nH]c(=S)c2n1CCNC(=O)C(F)(F)F` [2-0604, N-{2-[7-cyano-6-(1-methylpyrrol-2-yl)-4-thioxo(3-hydropyrrolo[3,2-d]pyrimidin-5-yl)]ethyl}-2,2,2-trifluoroacetamide], the IC50 is 30 to 100 nM.
Take `N#Cc1c(-c2ccco2)n(CCNC(=O)C(F)(F)F)c2c(=S)[nH]cnc12` [2-1804, N-[2-(7-cyano-6-(2-furyl)-4-thioxo(3-hydropyrrolo[3,2-d]pyrimidin-5-yl))ethyl]-2,2,2-trifluoroacetamide]: the IC50 fell in the range of 30 to 100 nM.
As for `CN(C(=O)CCn1c(-c2ccccc2)c(C#N)c2nc[nH]c(=S)c21)c1ccccc1` [3-0099], the concentration for half-maximal inhibition (IC50) was 1000 to 10000 nM.
`CCCCCn1c(-c2ccccc2)c(C#N)c2nc[nH]c(=O)c21` [1-0132]: the IC50 fell in the range of 1000 to 10000 nM.
Consider `N#Cc1c(-c2ccccc2)n(CC2CC2)c2c(=S)[nH]cnc12` [1-0275], for which the IC50 fell in the range of 1000 to 10000 nM.
As for `N#Cc1c(-c2ccccc2)n(CCc2ccccc2)c2c(=S)[nH]cnc12` [1-0312], the 50% inhibitory concentration (IC50) fell in the range of 1000 to 10000 nM.
Consider `COc1ccccc1-c1[nH]c2c(=O)[nH]cnc2c1C#N` [1-0038, 6-(2-methoxyphenyl)-4-oxo-3-hydropyrrolo[3,2-d]pyrimidine-7-carbonitrile], for which the half-inhibitory concentration (IC50) fell in the range of 1000 to 10000 nM.
As to `N#Cc1c(-c2cccc(C(=O)O)c2)[nH]c2c(=S)[nH]cnc12` [1-0687, 3-(7-cyano-4-thioxo-3-hydropyrrolo[4,5-d]pyrimidin-6-yl)benzoic acid], the IC50 is 1000 to 10000 nM.
Regarding `CCNC(=O)CCn1c(-c2ccccc2)c(C#N)c2nc[nH]c(=S)c21` [3-1792], the 50% inhibitory concentration (IC50) lay in the range of 30 to 100 nM.
